Results from article PMC10905675, “INX-315, a Selective CDK2 Inhibitor, Induces Cell Cycle Arrest and Senescence in Solid Tumors” (Cancer Discovery, 2023).

Assays:
MKN1 = assay: CellTiter Glo viability assay; type: cell-based; settings: 6 days
Experimental: (§1) An exception to this is MCF7PDRCl5-1 cells which were first cultured for 5 days without palbociclib then plated as described. MCF7PDRCl5-1 cells were treated with either a dose curve of the indicated CDK4/6i or a dose curve of INX-315 + 1 µmol/L of the indicated CDK4/6i. Cell viability was determined using the CellTiter-Glo assay (Promega, G9241) following manufacturer's instructions. Plates were processed on either BioTek Synergy2 multi-mode (Agilent) or ClarioSTAR (BMG Labtech) plate readers. T47D and MCF7 cells were seeded into […] plates using BioTek 406 (Aglient) and treated with a ten-point dose concentration from 10 µmol/L to 0.3 nmol/L of INX-315 for 2× doubling times. Plates were fixed with 4% PFA and stained with Rhodamine-Phalloidin (Bio-Trend, 00027) and DAPI (5 mg/mL, Invitrogen, catalog no. D1306). Plates were imaged using CellInsight CX7 LZR and DAPI-positive cells were counted using Thermo Fisher Scientific HCS Studio Cell Analysis Software.

[1] = system: palbociclib-resistant MCF7 cells; assay: CellTiter Glo viability assay; type: cell-based; settings: Homo sapiens, MCF7, Supp Fig S9B, CDK4/6 inhibitor monotherapy; read-out: IC50
Experimental: as §1

Hs68 = assay: CellTiter Glo viability assay; type: cell-based; settings: benign human fibroblast cell line Hs68
Experimental: as §1

[2] = system: five cell lines with CCNE1 amplification (ovarian cancer); assay: CellTiter Glo viability assay; type: cell-based; settings: six days
[3] = system: MMTV-rtTA/tetO-HER2 tumors; assay: Transgenic mammary tumor growth; type: in vivo, mice
Experimental: PDX models were performed by Crown Biosciences (OV5398, GA0103, and GA0114) or XenoSTART (ST4316B). Tumor fragments from stock mice were harvested and implanted subcutaneously into the flank of NOD/SCID mice (OV5398, RRID:IMSR_JAX:001303), BALB/c nude mice (GA0103 and GA0114, RRID:IMSR_RJ:BALB-C-NUDE), or athymic nude mice (Crl:NU(NCr)-Foxn1nu, RRID:IMSR_CRL:490) (ST4316B). For CDX models, female athymic nude mice (Crl:NU(NCr)-Foxn1nu, RRID:IMSR_CRL:490) were inoculated with 1 × 10^7 50% Cultrex OVCAR3 cells in the flank. Experiments performed using MMTV-rtTA/tetO-HER2 mice were performed at the Peter MacCallum Cancer Centre. Tumor formation was induced and sustained in female mice with doxycycline as previously described ([33]). Randomization and treatment in all models began when median tumor volume reached a maximum of 300 mm^3.
Mice were treated via oral gavage. INX-315 was prepared weekly in 100% PEG400; abemaciclib was prepared as previously described ([33]) and ribociclib (Selleckchem, S7440) was prepared weekly in 0.5% methyl cellulose. To generate abemaciclib-resistant MMTV-rtTA/tetO-HER2 tumors, mice were treated continuously with abemaciclib at a dose of 75 mg/kg until tumors resumed growth as described in text. […]

[4] = system: parental MCF7 and T47D cells; assay: Cell cycle flow cytometry; type: cell-based; settings: abemaciclib 500 nmol/L, 7 days
Experimental: One hour prior to endpoint, either 10 µmol/L BrdU or EdU was applied to the cells. Cells were stained using the Near-IR Fixable Viability Stain (Invitrogen, L34976) for 20 minutes at room temperature. Cells were fixed and permeabilized using FoxP3/Transcription Factor Staining Buffer Set (eBioscience, 00–5523–00; for BrdU-treated cells) or Click-iT fixative (for EdU-treated cells). DNA was denatured using 2N HCl + 0.5% (v/v) Triton X-100 for 30 minutes. […] Cells were then stained with BrdU antibody (clone 3D4, BioLegend, 364118, RRID:AB_2814318) for 1 hour. The EdU Click-iT reaction was performed using a Click-iT EdU Flow Cytometry Assay Kit (Invitrogen, C10418 or C10425). Prior to acquisition on the BD A3 Symphony or FACSCelesta, DNA was stained using FxCycle Violet ReadyFlow Reagent (BrdU) or FxCycle Far Red nucleic acid stain (Invitrogen, F10348) in combination with Rnase (Sigma R4642) (for EdU-treated cells). A minimum of 10,000 live cell events were recorded for each sample and data was analyzed using Flow Jo (Tree Star, RRID:SCR_008520).

Row | Structure (SMILES) | sensitivity of MKN1 (MKN1) | IC50 [1] [µM] | IC50 (Hs68) [µM] | sensitivity of CCNE1-amplified lines [2] | tumors with tumor regression (>25% reduction in tumor volume) ([3]; abemaciclib monotherapy, 163 of 183 tumors) [%] | regressing tumors that had resumed growth (acquired resistance) ([3]; by day 35 of abemaciclib treatment, 142 of 163) [%] | cells in S-phase [4] [%]
1 | CC(=O)c1c(C)c2cnc(Nc3ccc(N4CCNCC4)cn3)nc2n(C2CCCC2)c1=O [palbociclib, reference compound] | insensitive | > 10 | 0.026 | not sensitive | – | – | –
2 | CCN1CCN(Cc2ccc(Nc3ncc(F)c(-c4cc(F)c5nc(C)n(C(C)C)c5c4)n3)nc2)CC1 [abemaciclib] | – | 5.71 | – | – | 89 | 87 | < 1
